Reference: patent US20010034454A1, “Description anti-mitotic agents which inhibit tubulin polymerization” (BYLOR UNIVERSITY AND ARIZONA DESEASE CONTROL RESEARCH …, priority 1998, published 2001)
In brackets after ≈: the same amount, converted by molar mass. Read-outs that look alike come from different tables or passages of the source.

Experiments:
P388 leukemia cells = test: Cytotoxic assay with P388 leukemia cells; format: cell-based, mouse
Description: The tubulin polymerization compounds can also be tested for their ability to inhibit tumor cell growth.

FADU = test: Human cancer cell line studies, FADU; format: cell-based; details: Pharynx-sqam FADU
Method: (§1) The assay used is described in Monks et al. Briefly, the cell suspensions, diluted according to tho particular cell type and the expected target cell density (5,000-40,000 cells per well based on cell growth characteristics), were added by pipet (100 μl) to 96-well microtiter plates. Inoculates were allowed a preincubation time of 24-28 hours at 37° C. for stabilization. Incubation with the inhibitor compounds lasted for 48 hours in 5% CO2 atmosphere and 100% humidity. Determination of cell growth was done by in situ fixation of cells, followed by staining with a protein-binding dye, sulforhodamine B (SRB), which binds to the basic amino acids of cellular macromolecules. The solubilized stain was measured spectrophotometrically.

BXPC-3 = test: Human cancer cell line studies, BXPC-3; format: cell-based; details: Pancreas adn BXPC-3
Method: as §1

U251 = test: Human cancer cell line studies, U251; format: cell-based; details: CNS U251
Method: as §1, with “3-(3′,4′,5′-Trimethoxybenzoyl)-2-(4′-methoxyphenyl)-6-methoxybenzo[b]-thiophene was evaluated in terms of growth inhibitory activity against several human cancer cell lines, including ovarian CNS, renal, lung, colon and melanoma lines. The assay” for “The assay”

DU-145 = test: Human cancer cell line studies, DU-145; format: cell-based; details: Prostate DU-145
Method: as §1

NCI-H460 = test: Growth inhibitory activity, human cancer cell line NCI-H460 (SRB); format: cell-based; details: Lung-NSC NCI-H460
Method: as §1

RPMI-7951 = test: Human cancer cell line studies, RPMI-7951; format: cell-based; details: Melanoma RPMI-7951
Method: as §1, with “3-(3′,4′,5′-Trimethoxybenzoyl)-2-(4′-methoxyphenyl)-6-methoxybenzo[b]-thiophene was evaluated in terms of growth inhibitory activity against several human cancer cell lines, including ovarian CNS, renal, lung, colon and melanoma lines. The assay” for “The assay”

tubulin [1] = system: T1, tubulin; test: Tubulin polymerization assay; format: biochemical, bovine
T1 construct: Purified tubulin is obtained from bovine brain cells as described in Hamel and Lin
Method: The ability of the various above described compounds to inhibit tubulin polymerization can be determined by in vitro assay. A suitable assay system is that described by Bai et al. A method for purifying tubulin from bovine brain cells is described by Hamel and Lin.
IC50 values for tubulin polymerization were determined according to the procedure described in Bai et al. Purified tubulin is obtained from bovine brain cells as described in Hamel and Lin. Various amounts of inhibitor were preincubated for 15 minutes at 37° C. with purified tubulin. After the incubation period, the reaction was cooled and GTP was added to induce tubulin polymerization. Polymerization was then monitored in a Gilford spectrophotometer at 350 nm. The final reaction mixtures (0.25 ml) contained 1.5 mg/ml tubulin, 0.6 mg/ml microtubule-associated proteins (MAPs), 0.5 mM GTP, 0.5 mM MgCl2, 4% DMSO and 0.1 M 4-morpholineethanesulfonate buffer (MES, pH 6.4). […]

SK-N-SH = test: Human cancer cell line studies, SK-N-SH; format: cell-based; details: Homo sapiens; Neuroblast SK-N-SH; read-out: GI50
Method: as §1

SW1736 = test: Human cancer cell line studies, SW1736; format: cell-based; details: Homo sapiens, SW-1736; Thyroid ca SW1736; read-out: GI50
Method: as §1

tubulin [2] = test: Inhibition of binding of [3H]colchicine to tubulin; details: comparator, concentration not given
Description: A measurement of each compound's tubulin affinity may also be determined through the compound's ability to inhibit colchichine-tubulin binding. A suitable assay is that described by Kang et al., involving the use of commercially available tritiated colchicine. Decreases in the amount of [^3H]colchicine-tubulin interaction due to the competitive binding of one of the novel inhibitors of this invention may be measured by autoradiography or scintillation counting.

[3] = P388 mouse leukemia, dosage required to inhibit 50% of cell growth, read-out: ED50 (the source's name)
[4] = Homo sapiens, U-251, read-out: GI50
[5] = Mus musculus, P388, read-out: ED50
[6] = purified tubulin […], GTP-induced, 350 nm, final steady-state number for compounds other than 1A and 10A, read-out: IC50 for inhibition of tubulin polymerization
[7] = P388 mouse leukemia, dosage required to inhibit 50% of cell growth

Row | SMILES | IC50 (P388 leukemia cells; [3]) | GI50 (FADU; Homo sapiens, read-out: GI50) | GI50 (BXPC-3; Homo sapiens, read-out: GI50) | GI50 (U251; [4]) | GI50 (DU-145; Homo sapiens, read-out: GI50) | GI50 (NCI-H460; Homo sapiens, read-out: GI50) | GI50 (RPMI-7951; Homo sapiens, read-out: GI50) | further results
1 | COc1ccc(C(=O)c2c(-c3ccc(OC)cc3)sc3cc(OC)ccc23)cc1 [Compound 5A, 3-(4′-methoxybenzoyl)-2-(4′-methoxyphenyl)-6-methoxybenzo[b]thiophene] | > 100 µg/mL | > 10 µg/mL | 8.9 µg/mL (≈ 22 µM) | > 10 µg/mL | > 10 µg/mL | > 10 µg/mL | > 10 µg/mL | –
2 | COc1ccc(-c2sc3cc(OC)ccc3c2C(=O)Cc2ccccc2)cc1 [Compound 20A, 3-(phenylacetyl)-2-(4′-methoxyphenyl)-6-methoxybenzo[b]thiophene] | > 10 µg/mL | 9.2 µg/mL (≈ 23.7 µM) | > 10 µg/mL | > 10 µg/mL | > 10 µg/mL | > 10 µg/mL | > 10 µg/mL | –
3 | CCOc1ccc(-c2sc3cc(OCC)ccc3c2C(=O)c2cc(OCC)c(OCC)c(OCC)c2)cc1 [Compound 9A, 3-(3′,4′,5′-triethoxybenzoyl)-2-(4′-ethoxyphenyl)-6-ethoxybenzo[b]thiophene] | > 10 µg/mL | > 10 µg/mL | > 10 µg/mL | > 10 µg/mL | > 10 µg/mL | > 10 µg/mL | > 10 µg/mL | –
4 | COc1ccc(-c2sc3cc(OC)ccc3c2Oc2cc(OC)c(OC)c(OC)c2)cc1 [Compound 23B, 3-(3′,4′,5′-trimethoxyphenoxy)-2-(4′-methoxyphenyl)-6-methoxybenzo[b]thiophene] | – | 0.098 µg/mL (≈ 0.217 µM) | 0.23 µg/mL (≈ 0.508 µM) | – | 0.42 µg/mL (≈ 0.928 µM) | 0.31 µg/mL (≈ 0.685 µM) | – | IC50 (P388 leukemia cells; [5]): 3.09 µg/mL (≈ 6.83 µM); IC50 (tubulin [1]; [6]): 1.4 µM; GI50 (SK-N-SH): 0.063 µg/mL (≈ 0.139 µM); GI50 (SW1736): 0.73 µg/mL (≈ 1.61 µM)
5 | COc1ccc(-c2sc3cc(OC)ccc3c2C(=O)Cc2cc(OC)c(OC)c(OC)c2)cc1 [Compound 21A] | – | – | – | – | – | – | – | ED50 (P388 leukemia cells; [7]): >10 µg/mL; GI50 (FADU): 7.9 µg/mL (≈ 16.5 µM); GI50 (BXPC-3): 9.8 µg/mL (≈ 20.5 µM); GI50 (U251): >10 µg/mL; GI50 (DU-145): >10 µg/mL; GI50 (NCI-H460): >10 µg/mL; GI50 (RPMI-7951): >10 µg/mL
6 | COc1ccc(-c2sc3cc(OC)ccc3c2C(=O)CCc2cc(OC)c(OC)c(OC)c2)cc1 [Compound 8A, 3-[3′-(3′,4′,5′-trimethoxyphenyl)propionyl]-2-(4′-methoxyphenyl)-6-methoxybenzo[b]thiophene] | – | – | – | – | – | – | – | ED50 (P388 leukemia cells; [7]): >10 µg/mL; GI50 (FADU): 9.1 µg/mL (≈ 18.5 µM); GI50 (BXPC-3): >10 µg/mL; GI50 (U251): 4.5 µg/mL (≈ 9.14 µM); GI50 (DU-145): >10 µg/mL; GI50 (NCI-H460): 3.8 µg/mL (≈ 7.71 µM); GI50 (RPMI-7951): >10 µg/mL
7 | COc1ccc(/C=C\c2cc(OC)c(OC)c(OC)c2)cc1O [Combretastatin A-4, reference compound] | – | – | – | – | – | – | – | IC50 (tubulin [1]; read-out: 50% inhibition of the maximum tubulin assembly rate, inhibition of rate rather than steady state): […]; inhibition of the binding of [3H]colchicine to tubulin (tubulin [2]): total inhibition
8 | COc1ccc(-c2sc3cc(OC)ccc3c2C(=O)c2ccc(OC)c(OC)c2)cc1 [Compound 4A, 3-(3′,4′-dimethoxybenzoyl)-2-(4′-methoxyphenyl)-6-methoxybenzo[b]thiophene] | > 10 µg/mL | 4.7 µg/mL (≈ 10.8 µM) | 5.2 µg/mL (≈ 12 µM) | – | > 10 µg/mL | 4.6 µg/mL (≈ 10.6 µM) | – | IC50 (tubulin [1]; [6]): > 40 µM; GI50 (SK-N-SH): 3.2 µg/mL (≈ 7.36 µM); GI50 (SW1736): > 10 µg/mL
9 | COc1ccc(/C=C\c2cc(OC)c(OC)c(OC)c2)cc1N=[N+]=[N-] [Compound 34E, (Z)-1-(3′azido-4′-methoxyphenyl)-2-(3″,4″,5″-trimethoxyphenyl)ethene] | – | 0.0076 µg/mL (≈ 0.0223 µM) | 0.005 µg/mL (≈ 0.0146 µM) | – | 0.0091 µg/mL (≈ 0.0267 µM) | 0.0056 µg/mL (≈ 0.0164 µM) | – | IC50 (P388 leukemia cells; [5]): 0.0384 µg/mL (≈ 0.112 µM); IC50 (tubulin [1]; [6]): 1.3 µM; GI50 (SK-N-SH): 0.0033 µg/mL (≈ 0.00967 µM); GI50 (SW1736): 1.2 µg/mL (≈ 3.52 µM)
10 | CCOc1ccc(C(=O)c2c(-c3ccc(OC)cc3)sc3cc(OC)ccc23)cc1 [Compound 6A, 3-(4′-ethoxybenzoyl)-2-(4′-methoxyphenyl)-6-methoxybenzo[b]thiophene] | > 100 µg/mL | 0.48 µg/mL (≈ 1.15 µM) | 0.65 µg/mL (≈ 1.55 µM) | 0.43 µg/mL (≈ 1.03 µM) | 3.9 µg/mL (≈ 9.32 µM) | 2.4 µg/mL (≈ 5.73 µM) | 3.2 µg/mL (≈ 7.65 µM) | –
11 | COc1ccc(-c2sc3cc(OC)ccc3c2C(=O)c2cc(OC)c(OC)c(OC)c2)cc1 [Compound 1A, 3-(3′,4′,5′-trimethoxybenzoyl)-2-(4′-methoxyphenyl)-6-methoxybenzo[b]thiophene] | – | – | – | – | – | – | – | melting point: 131 to 133 °C
12 | CCOc1cc(C(=O)c2c(-c3ccc(OC)cc3)sc3cc(OC)ccc23)cc(OCC)c1OCC [Compound 7A, 3-(3′,4′,5′-triethoxybenzoyl)-2-(4′-methoxyphenyl)-6-methoxybenzo[b]thiophene] | > 100 µg/mL | > 10 µg/mL | > 10 µg/mL | > 10 µg/mL | > 10 µg/mL | > 10 µg/mL | > 10 µg/mL | –
